These results are taken from patent publication US20230117034A1, “PYRAZOLOTRIAZINES” (Bayer Aktiengesellschaft, priority 2019, published 2023).

The target of assay [1] is T1, CDK12 (nuclear staining in CAL-120 cells) (Homo sapiens, UniProt Q9NYV4).
T1 construct: endogenous in cells; host or cells: CAL-120 human breast cancer cells (DSMZ ACC 459)
In words: CDK12 nuclear protein level: immunofluorescence/high content analysis (CAL-120). In kind it is cell-based. The note with it: for DC50: CAL-120 cells, 24 h, immunofluorescence, 50% reduction of nuclear CDK12 staining intensity, median, read-out: CDK12 degradation IF, DC50- [mol/l] (median); for (IC50 CDK12 high ATP) to (Degradation DC50 CDK12) ratio: ratio of IC50 CDK12 high ATP kinase assay to DC50 CDK12 degradation (IF, CAL-120). An outline of the steps: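 CAL-120 cells were treated with compound for 24 h at 37 °C, fixed with PFA and immunostained for CDK12. Nuclear CDK12 intensity was quantified by automated image analysis and normalized to DMSO and control. DC50 is the concentration giving 50% reduction of nuclear staining.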

Assay [2] has as its target T2, CDK2/CycE (Homo sapiens, UniProt P24941).
T2 construct: purchased ProQinase GmbH (Freiburg, Germany); host or cells: insect cells (Sf9)
Description: CDK2/CycE kinase assay (TR-FRET, 2 mM ATP). It is filed as biochemical. The settings on record: 2 mM ATP (high ATP); median; read-out: CDK2/CyclinE, 2 mM ATP (high ATP), IC50 (median). The essentials:
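GST-tagged human CDK2 and CycE from Sf9 cells, about 10 ng/ml, pre-incubated 15 min at 22 °C with compound in Tris/HCl pH 8.0 buffer. Reaction with 2 mM ATP and 0.75 µM biotinylated peptide for 25 min at 22 °C. Phospho-RB antibody TR-FRET (665/620 nm ratio) read after 1 h; data normalised to no-inhibitor and no-enzyme controls.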
(In general: TR-FRET usually uses a lanthanide donor and a delayed reading to cut background.)

T1 sequence (Q9NYV4 whole entry): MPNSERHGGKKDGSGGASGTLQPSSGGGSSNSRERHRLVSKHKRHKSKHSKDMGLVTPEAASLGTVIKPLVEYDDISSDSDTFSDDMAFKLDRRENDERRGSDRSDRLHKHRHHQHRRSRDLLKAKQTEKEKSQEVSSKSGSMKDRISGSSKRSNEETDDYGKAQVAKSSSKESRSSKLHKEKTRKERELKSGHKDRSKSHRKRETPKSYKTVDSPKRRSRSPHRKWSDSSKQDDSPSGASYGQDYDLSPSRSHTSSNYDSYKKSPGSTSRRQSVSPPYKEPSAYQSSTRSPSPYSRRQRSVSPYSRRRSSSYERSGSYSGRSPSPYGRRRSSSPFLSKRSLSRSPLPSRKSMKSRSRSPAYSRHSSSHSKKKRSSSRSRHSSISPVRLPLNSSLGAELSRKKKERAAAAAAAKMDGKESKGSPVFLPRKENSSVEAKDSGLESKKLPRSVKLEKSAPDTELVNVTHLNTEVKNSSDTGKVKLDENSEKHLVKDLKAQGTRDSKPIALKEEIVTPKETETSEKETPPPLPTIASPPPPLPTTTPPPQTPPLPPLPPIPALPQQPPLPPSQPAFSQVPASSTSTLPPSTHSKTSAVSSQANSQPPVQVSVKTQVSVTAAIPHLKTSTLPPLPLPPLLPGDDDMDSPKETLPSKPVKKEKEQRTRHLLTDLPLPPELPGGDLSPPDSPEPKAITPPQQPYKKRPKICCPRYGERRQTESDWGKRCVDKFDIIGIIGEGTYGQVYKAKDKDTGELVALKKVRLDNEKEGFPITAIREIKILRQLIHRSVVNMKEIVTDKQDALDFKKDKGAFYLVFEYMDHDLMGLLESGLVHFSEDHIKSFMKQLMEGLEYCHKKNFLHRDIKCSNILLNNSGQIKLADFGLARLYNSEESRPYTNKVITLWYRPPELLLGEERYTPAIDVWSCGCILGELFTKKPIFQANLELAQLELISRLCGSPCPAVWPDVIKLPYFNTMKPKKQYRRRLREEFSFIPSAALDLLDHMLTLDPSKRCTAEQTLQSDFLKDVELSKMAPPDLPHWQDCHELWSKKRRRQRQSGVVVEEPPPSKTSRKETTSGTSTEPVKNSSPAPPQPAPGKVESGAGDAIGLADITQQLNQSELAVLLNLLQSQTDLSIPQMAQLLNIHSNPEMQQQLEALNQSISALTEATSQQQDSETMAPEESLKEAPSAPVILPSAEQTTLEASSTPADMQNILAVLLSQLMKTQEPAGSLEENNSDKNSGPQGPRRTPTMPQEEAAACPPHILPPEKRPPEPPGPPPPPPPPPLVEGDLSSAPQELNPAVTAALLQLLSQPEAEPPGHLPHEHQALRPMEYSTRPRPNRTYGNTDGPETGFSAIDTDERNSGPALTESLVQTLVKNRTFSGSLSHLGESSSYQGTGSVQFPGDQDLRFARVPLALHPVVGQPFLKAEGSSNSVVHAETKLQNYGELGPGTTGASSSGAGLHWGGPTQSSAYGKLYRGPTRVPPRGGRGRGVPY
T1 sequence (O75909 whole entry partner): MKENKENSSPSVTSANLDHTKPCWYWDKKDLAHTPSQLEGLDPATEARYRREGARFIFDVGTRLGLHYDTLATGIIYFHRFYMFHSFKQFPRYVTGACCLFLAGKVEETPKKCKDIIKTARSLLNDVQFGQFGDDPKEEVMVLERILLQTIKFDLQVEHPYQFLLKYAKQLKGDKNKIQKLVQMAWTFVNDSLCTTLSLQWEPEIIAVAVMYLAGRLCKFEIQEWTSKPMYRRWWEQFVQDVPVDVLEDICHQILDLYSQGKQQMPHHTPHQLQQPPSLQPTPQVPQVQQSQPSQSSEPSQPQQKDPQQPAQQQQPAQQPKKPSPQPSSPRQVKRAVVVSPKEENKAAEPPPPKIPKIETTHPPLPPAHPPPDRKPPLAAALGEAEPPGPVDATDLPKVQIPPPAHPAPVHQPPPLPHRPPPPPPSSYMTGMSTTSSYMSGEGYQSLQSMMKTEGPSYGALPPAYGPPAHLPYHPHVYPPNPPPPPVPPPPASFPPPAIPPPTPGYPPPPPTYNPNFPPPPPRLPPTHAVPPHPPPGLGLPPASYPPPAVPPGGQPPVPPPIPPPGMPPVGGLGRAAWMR

Regarding `Fc1c(Cl)ccc2[nH]c(CNc3nc(N4CC5CCC(C4)N5)nc4c(C5CC5)cnn34)nc12` [Example 379, N-[(5-chloro-4-fluoro-1H-benzimidazol-2-yl)methyl]-8-cyclopropyl-2-(3,8-diazabicyclo[3.2.1]octan-3-yl)pyrazolo[1,5-a][1,3,5]triazin-4-amine], in assay [1], the DC50 came to 4.35 nM and the “(IC50 CDK12 high ATP) to (Degradation DC50 CDK12) ratio” value amounted to 121. The IC50 in assay [2] stood at 14.3 µM.
In the case of `CN1CCN(c2nc(NCc3nc4cc(OC(F)(F)F)ccc4[nH]3)n3ncc(Br)c3n2)CC1` [Example 377, 8-bromo-2-(4-methylpiperazin-1-yl)-N-{[5-(trifluoromethoxy)-1H-benzimidazol-2-yl]methyl}pyrazolo[1,5-a][1,3,5]triazin-4-amine], in assay [1], the DC50 was determined as 20.2 nM and the “(IC50 CDK12 high ATP) to (Degradation DC50 CDK12) ratio” value is listed as 252. Besides, the IC50 in assay [2] was 17.1 µM.
As to `Cc1ccnc2[nH]c(CNc3nc(N4CCN(C)CC4)nc4c(C(C)C)cnn34)nc12` [Example 32, N-[(7-methyl-3H-imidazo[4,5-b]pyridin-2-yl)methyl]-2-(4-methylpiperazin-1-yl)-8-(propan-2-yl)pyrazolo[1,5-a][1,3,5]triazin-4-amine], in assay [1], the DC50 was found to be 7.21 nM and the “(IC50 CDK12 high ATP) to (Degradation DC50 CDK12) ratio” value amounted to 2565. In addition, in assay [2], the IC50 was found to be 15.6 µM.
As to `CN1CCC(Oc2nc(NCc3nc4ccccc4[nH]3)n3ncc(Br)c3n2)CC1` [Example 389, N-[(1H-benzimidazol-2-yl)methyl]-8-bromo-2-[(1-methylpiperidin-4-yl)oxy]pyrazolo[1,5-a][1,3,5]triazin-4-amine], in assay [1], the DC50 amounted to 33.5 nM and the “(IC50 CDK12 high ATP) to (Degradation DC50 CDK12) ratio” value is greater than 597. Moreover, in assay [2], the IC50 is greater than 20 µM.
Regarding `CN(CC(C)(C)O)c1nc(NCc2nc3c(F)c(Cl)ccc3[nH]2)n2ncc(C3CC3)c2n1` [Example 387, 1-[(4-{[(5-chloro-4-fluoro-1H-benzimidazol-2-yl)methyl]amino}-8-cyclopropylpyrazolo[1,5-a][1,3,5]triazin-2-yl)(methyl)amino]-2-methylpropan-2-ol], in assay [1], the DC50 amounted to 3.83 nM and the “(IC50 CDK12 high ATP) to (Degradation DC50 CDK12) ratio” value came to 61. Also, the IC50 in assay [2] was found to be 5.35 µM.
The like results for `C[C@H]1CN(C)CCN1c1nc(NCc2nc3c(F)cccc3[nH]2)n2ncc(C(F)(F)F)c2n1` [Example 388, 2-[(2S)-2,4-dimethylpiperazin-1-yl]-N-[(4-fluoro-1H-benzimidazol-2-yl)methyl]-8-(trifluoromethyl)pyrazolo[1,5-a][1,3,5]triazin-4-amine] were, in that order, 10.4 nM, 655 and greater than 20 µM.
Regarding `CC[C@H](COC)Nc1nc(NCc2nc3ccccc3[nH]2)n2ncc(Br)c2n1` [Example 369, N4-[(1H-benzimidazol-2-yl)methyl]-8-bromo-N2-[(2R)-1-methoxybutan-2-yl]pyrazolo[1,5-a][1,3,5]triazine-2,4-diamine], in assay [1], the DC50 stood at 20.6 nM and the “(IC50 CDK12 high ATP) to (Degradation DC50 CDK12) ratio” value is greater than 970. The IC50 in assay [2] was 10.5 µM.
As for `Cc1cc2nc(CNc3nc(N(C)CC(C)(C)O)nc4c(C5CC5)cnn34)[nH]c2cc1C` [Example 321, 1-[(8-cyclopropyl-4-{[(5,6-dimethyl-1H-benzimidazol-2-yl)methyl]amino}pyrazolo[1,5-a][1,3,5]triazin-2-yl)(methyl)amino]-2-methylpropan-2-ol], in assay [1], the DC50 was 6.23 nM and the “(IC50 CDK12 high ATP) to (Degradation DC50 CDK12) ratio” value was found to be 67. Besides, the IC50 in assay [2] came out at 1 µM.
Turning to `FC(F)(F)c1ccc2[nH]c(CNc3nc(N4CC5CCC(C4)N5)nc4c(Br)cnn34)nc2c1` [Example 354, 8-bromo-2-(3,8-diazabicyclo[3.2.1]octan-3-yl)-N-{[5-(trifluoromethyl)-1H-benzimidazol-2-yl]methyl}pyrazolo[1,5-a][1,3,5]triazin-4-amine], in assay [1], the DC50 turned out to be 71.3 nM and the “(IC50 CDK12 high ATP) to (Degradation DC50 CDK12) ratio” value is on record as 52.
